# Measurements taken from PMC5011961, “In vitro antimicrobial activities of animal-used quinoxaline 1,4-di-N-oxides against mycobacteria, mycoplasma and fungi” (BMC Veterinary Research, 2016).
# Like-named read-outs stand apart in the source and are kept apart here.
# Key:
# [1] = tested on: M. gallisepticum; experiment: Antimycoplasma assay, MIC in microtiter plates; details: Mycoplasmoides gallisepticum
# Method: (§1) Briefly, 96-well microtiter Sensititre plates containing stabilized and freeze-dried antimicrobials were used. Three wells on each plate were set as antimicrobial free growth control. Freshly thawed mycoplasma isolates with known titers were diluted in liquid medium until the number of organisms reached 10^4 color changing units/mL. 50 μL of the diluted culture was transferred into each well of the Sensititre plates. […] The plates were sealed using an adhesive foil and incubated at 36 °C for 14 days. The growth of M. hyopneumoniae was observed daily when the color of the medium changed from red to yellow (phenol red indicator), and the initial and final MICs were recorded.
# [2] = tested on: M. hyopneumoniae; experiment: Antimycoplasma assay, MIC in microtiter plates; details: Mesomycoplasma hyopneumoniae
# Method: as §1
# [3] = tested on: Candida albicans; experiment: Antifungal assay, macrobroth 2-fold serial dilution MIC
# [4] = tested on: Epidermophyton floccosum; experiment: as above
# [5] = tested on: Trichophyton rubrum; experiment: as above
# [6] = tested on: Cryptococcus neoformans; experiment: as above
# [7] = tested on: Aspergillus fumigatus; experiment: as above
# [8] = tested on: Microsporum canis; experiment: as above
# [9] = tested on: Candida tropicalis; experiment: as above
# [10] = tested on: Candida parapsilosis; experiment: as above; details: Lodderomyces parapsilosis
# [11] = tested on: M. tuberculosis H37Rv ATCC 27294; experiment: Microdilution alamar blue assay (MABA); format: cell-based, Mycobacterium tuberculosis
# [12] = tested on: M. bovis ATCC 19210; experiment: microbe, parasite or virus in culture; format: cell-based, Mycobacterium bovis
# [13] = tested on: M. tuberculosis H37Ra ATCC 25177; experiment: Microdilution alamar blue assay (MABA)
# Method: Briefly, each of the above Mycobacterium strains was cultured at 37 °C in Middlebrook 7H9 broth supplemented with 0.2 % glycerol and 10 % Oleic Acid-Albumin-Dextrose-Catalase (Sigma, St Louis, MO, USA) until logarithmic growth was reached. About 6 × 10^6 CFU/mL inoculum of Mycobacterium strain was then added to the two fold serially diluted drug samples. The final concentration of DMSO in all assays was 2.5 % or less and this dilution also served as solvent control. The samples were assayed in triplicate. All tests were carried out in sterile flat bottom 96-well microplates. Each microplate was incubated for 5 days at 37 °C in a sealed plastic CO2-permeable bag. After 7 days of incubation, 32 μL of a mixture of freshly prepared Alamar Blue solution and 20 % sterile Tween-80 at 1:1 (v/v) were added to the growth-control well. The microplates were incubated at 37 °C for 24 h. […] A well-defined pink color was interpreted as positive bacterial growth, whereas a blue color indicated an absence of growth.
# [14] = tested on: DF-1 cells; experiment: Cytotoxicity assay (MTT); details: for TC50: DF-1, 72 h, MTT, mean ± SD, n = 4; for MNTC: DF-1, maximum non-cytotoxic concentration (90 % cell viability)
# [15] = tested on: M. tuberculosis complex; experiment: Combination susceptibility assay (checkerboard method), overall statements; format: cell-based; details: combined with rifampicin
# [16] = tested on: Marc-145 cells; experiment: Cytotoxicity assay (MTT); details: for TC50: Marc-145, 72 h, MTT, mean ± SD, n = 4; for MNTC: Marc-145, maximum non-cytotoxic concentration (90 % cell viability)
# [17] = tested on: PRRSV; experiment: Antiviral assay (CPE/MTT; adsorption inhibition, infection inhibition, virucidal); format: cell-based, porcine reproductive and respiratory syndrome virus; design: key to IC50: “--”represent not detected owing to the low inhibition ratio; details: PRRSV, mean±SD of four experiments
# [18] = tested on: IBDV; experiment: as above; format: cell-based, infectious bursal disease virus; design: key to IC50: “--” represent not detected owing to the low inhibition ratio; details: IBDV, mean±SD of four experiments
# [19] = tested on: Mycoplasma gallisepticum; experiment: Combination susceptibility assay (checkerboard method); format: cell-based; details: combined with tetracyclines (tetracycline and doxycycline), M. gallisepticum
# [20] = tested on: PPV; experiment: Antiviral assay (CPE/MTT; adsorption inhibition, infection inhibition, virucidal); format: cell-based, porcine parvovirus; design: key to IC50: “--” represent not detected owing to the low inhibition ratio; details: PPV, mean±SD of four experiments
# [21] = tested on: PK-15 cells; experiment: Cytotoxicity assay (MTT); details: for TC50: PK-15, 72 h, MTT, mean ± SD, n = 4; for MNTC: PK-15, maximum non-cytotoxic concentration (90 % cell viability)
# [22] = M. gallisepticum BG44T (10^4ccu/mL)
# [23] = M. gallisepticum MG-HS (10^6ccu/mL)
# [24] = M. gallisepticum PG31 (10^8 ccu/mL)
# [25] = A. fumigatus 3.5301, deep fungi
# [26] = A. fumigatus 3.5352, deep fungi
# [27] = Candida tropicalis, C. tropicalis 2.2735, deep fungi
# [28] = Candida tropicalis, C. tropicalis 7349, deep fungi
# [29] = Mycobacterium tuberculosis, read-out: MIC
# [30] = Mycobacterium tuberculosis variant bovis, ATCC19210
compound,measurement,setting,value
"CCN1CCN(c2cc3c(cc2F)c(=O)c(C(=O)O)cn3C2CC2)CC1 [Enrofloxacin, enrofloxacin]",MIC,[1]; [22],0.013 mg/L
same,MIC,[1]; [23],0.05 mg/L
same,MIC,[1]; [24],0.025 mg/L
same,MIC,[2],0.025 mg/L
"C[C@@H]1[C@H](O)[C@@H](C)/C=C/C=C/C=C/C=C/C=C/C=C/C=C/[C@H](O[C@@H]2O[C@H](C)[C@@H](O)[C@H](N)[C@@H]2O)C[C@@H]2O[C@](O)(C[C@@H](O)C[C@@H](O)[C@H](O)CC[C@@H](O)C[C@@H](O)CC(=O)O[C@H]1C)C[C@H](O)[C@H]2C(=O)O [AMB, amphotericin B]",MIC,"[3]; C. albicans 2.4122, deep fungi",2 mg/L
same,MIC,"[3]; C. albicans 90028, deep fungi",1 mg/L
same,MIC,[4],0.5 mg/L
same,MIC,[4]; CBS566094,0.5 mg/L
same,MIC,[5],1 mg/L
same,MIC,[5]; ATCC4438,1 mg/L
same,MIC,[6],0.5 mg/L
same,MIC,[7]; [25],0.5 mg/L
same,MIC,[7]; [26],0.5 mg/L
same,MIC,[8],1 mg/L
same,MIC,[8]; CBS113480,0.5 mg/L
same,MIC,[9]; [27],2 mg/L
same,MIC,[9]; [28],2 mg/L
same,MIC,[10],1 mg/L
"NC(=O)c1cnccn1 [Pyrazinamide, pyrazinamide]",MIC,[11]; [29],0.8 mg/L
same,MIC,[12]; [30],0.8 mg/L
"CC[C@H]1OC(=O)C[C@@H](O)[C@H](C)[C@@H](O[C@@H]2O[C@H](C)[C@@H](O[C@H]3C[C@@](C)(O)[C@@H](O)[C@H](C)O3)[C@H](N(C)C)[C@H]2O)[C@@H](CC=O)C[C@@H](C)C(=O)/C=C/C(C)=C/[C@@H]1CO[C@@H]1O[C@H](C)[C@@H](O)[C@@H](OC)[C@H]1OC [Tylosin, tylosin]",MIC,[1]; [22],0.05 mg/L
same,MIC,[1]; [23],0.025 mg/L
same,MIC,[1]; [24],0.025 mg/L
same,MIC,[2],0.05 mg/L
"CC[C@@H](CO)NCCN[C@@H](CC)CO [Ethambutol, ethambutol]",MIC,[11]; [29],0.025 mg/L
same,MIC,[12]; [30],0.025 mg/L
NC[C@H]1O[C@H](O[C@H]2[C@H](O)[C@@H](O[C@H]3O[C@H](CO)[C@@H](O)[C@H](N)[C@H]3O)[C@H](N)C[C@@H]2N)[C@H](O)[C@@H](O)[C@@H]1O [Kanamycin],MIC,[11],0.2 mg/L
same,MIC,[12]; M. bovis ATCC 19210,0.2 mg/L
NCC[C@H](O)C(=O)N[C@@H]1C[C@H](N)[C@@H](O[C@H]2O[C@H](CN)[C@@H](O)[C@H](O)[C@H]2O)[C@H](O)[C@H]1O[C@H]1O[C@H](CO)[C@@H](O)[C@H](N)[C@H]1O [Amikacin],MIC,[11]; [29],3.2 mg/L
same,MIC,[12]; [30],1.6 mg/L
"NNC(=O)c1ccncc1 [Isoniazid, isoniazid]",MIC,[11]; [29],0.025 mg/L
same,MIC,[12]; [30],0.025 mg/L
same,MIC,[13],16 mg/L
"N#CCC(=O)N/N=C/c1c[n+]([O-])c2ccccc2[n+]1[O-] [CYA, cyadox]",TC50,[14],17.26 ± 1.27 mg/L
same,MNTC,[14],1.0 µg/mL
same,MIC,"[3]; C. albicans 2.4122, deep fungi",32 mg/L
same,MIC,"[3]; C. albicans 90028, deep fungi",64 mg/L
same,FIC,[15],0.75
same,MIC,[4],32 mg/L
same,MIC,[4]; CBS566094,32 mg/L
same,TC50,[16],16.92 ± 1.28 mg/L
same,MNTC,[16],1.56 µg/mL
same,MIC,[1]; [22],32 mg/L
same,MIC,[1]; [23],16 mg/L
same,MIC,[1]; [24],16 mg/L
same,IC50,[17]; Inactivation,--
same,IC50,[17]; Prevention,--
same,IC50,[17]; Treatment,--
same,IC50,[18]; Inactivation,--
same,IC50,[18]; Prevention,--
same,IC50,[18]; Treatment,--
same,MIC,[11]; [29],4 mg/L
same,MIC,[12]; [30],8 mg/L
same,MIC,[5],32 mg/L
same,MIC,[5]; ATCC4438,32 mg/L
same,MIC,[6],16 mg/L
same,MIC,[7]; [25],64 mg/L
same,MIC,[7]; [26],32 mg/L
same,Combined effect,[19],"additive (0.5 to 1, additive)"
same,MIC,[13],64 mg/L
same,IC50,[20]; Inactivation,--
same,IC50,[20]; Prevention,--
same,IC50,[20]; Treatment,--
same,MIC,[8],32 mg/L
same,MIC,[8]; CBS113480,16 mg/L
same,MIC,[2],16 mg/L
same,MIC,[9]; [27],32 mg/L
same,MIC,[9]; [28],32 mg/L
same,TC50,[21],15.31 ± 1.23 mg/L
same,MNTC,[21],1.2 µg/mL
same,MIC,[10],32 mg/L
"Cc1c(C(C)O)nc2ccccc2[n+]1[O-] (stereo not drawn) [M4, carbonyl reduction N1-deoxy mequindox]",TC50,[14],37.75 ± 2.68 mg/L
same,MNTC,[14],1.0 µg/mL
same,TC50,[16],128.62 ± 2.67 mg/L
same,MNTC,[16],3.9 µg/mL
same,IC50,[17]; Inactivation,--
same,IC50,[17]; Prevention,--
same,IC50,[17]; Treatment,--
same,IC50,[18]; Inactivation,--
same,IC50,[18]; Prevention,--
same,IC50,[18]; Treatment,--
same,IC50,[20]; Inactivation,--
same,IC50,[20]; Prevention,--
same,IC50,[20]; Treatment,--
same,TC50,[21],40.81 ± 1.27 mg/L
same,MNTC,[21],3.9 µg/mL
"N#CCC(=O)N/N=C/c1c[n+]([O-])c2ccccc2n1 [Cy10, N1-deoxy cyadox]",TC50,[14],49.2 ± 1.93 mg/L
same,MNTC,[14],2.0 µg/mL
same,TC50,[16],33.62 ± 1.85 mg/L
same,MNTC,[16],2.0 µg/mL
same,IC50,[17]; Inactivation,--
same,IC50,[17]; Prevention,--
same,IC50,[17]; Treatment,--
same,IC50,[18]; Inactivation,--
same,IC50,[18]; Prevention,--
same,IC50,[18]; Treatment,--
same,IC50,[20]; Inactivation,--
same,IC50,[20]; Prevention,--
same,IC50,[20]; Treatment,--
same,TC50,[21],25.27 ± 1.55 mg/L
same,MNTC,[21],2.0 µg/mL
"CO[C@H]1/C=C/O[C@@]2(C)Oc3c(C)c(O)c4c(O)c(c(/C=N/N5CCN(C)CC5)c(O)c4c3C2=O)NC(=O)/C(C)=C\C=C\[C@H](C)[C@H](O)[C@@H](C)[C@@H](O)[C@@H](C)[C@H](OC(C)=O)[C@@H]1C [Rifampicin, rifampicin]",MIC,[11]; [29],0.05 mg/L
same,MIC,[12]; [30],0.025 mg/L
same,MIC,[13],1.6 mg/L
"CC(=O)N1CCN(c2ccc(OCC3COC(Cn4ccnc4)(c4ccc(Cl)cc4Cl)O3)cc2)CC1 (stereo not drawn) [KCZ, ketoconazole]",MIC,"[3]; C. albicans 2.4122, deep fungi",0.5 mg/L
same,MIC,"[3]; C. albicans 90028, deep fungi",0.25 mg/L
same,MIC,[4],0.25 mg/L
same,MIC,[4]; CBS566094,0.25 mg/L
same,MIC,[5],0.5 mg/L
same,MIC,[5]; ATCC4438,0.5 mg/L
same,MIC,[6],0.25 mg/L
same,MIC,[7]; [25],0.25 mg/L
same,MIC,[7]; [26],0.5 mg/L
same,MIC,[8],0.5 mg/L
same,MIC,[8]; CBS113480,0.25 mg/L
same,MIC,"[9]; C. tropicalis 2.2735, deep fungi",0.5 mg/L
same,MIC,[9]; Candida tropicalis,0.5 mg/L
same,MIC,[10],0.125 mg/L
"N#CCC(=O)N/N=C/c1cnc2ccccc2[n+]1[O-] [Cy2, N4-deoxy cyadox]",TC50,[14],35.48 ± 2.87 mg/L
same,MNTC,[14],1.0 µg/mL
same,TC50,[16],96.55 ± 3.12 mg/L
same,MNTC,[16],2.0 µg/mL
same,IC50,[17]; Inactivation,--
same,IC50,[17]; Prevention,--
same,IC50,[17]; Treatment,--
same,IC50,[18]; Inactivation,--
same,IC50,[18]; Prevention,--
same,IC50,[18]; Treatment,--
same,IC50,[20]; Inactivation,--
same,IC50,[20]; Prevention,--
same,IC50,[20]; Treatment,--
same,TC50,[21],51.73 ± 2.96 mg/L
same,MNTC,[21],2.0 µg/mL
"[H]/N=C(/N)N[C@H]1[C@H](O)[C@@H](O)[C@H](O[C@@H]2O[C@@H](C)[C@](O)(C=O)[C@H]2O[C@@H]2O[C@@H](CO)[C@H](O)[C@@H](O)[C@@H]2NC)[C@@H](N/C(N)=N\[H])[C@@H]1O [Streptomycin, streptomycin]",MIC,[11]; [29],0.025 mg/L
same,MIC,[12]; [30],0.013 mg/L
